The source of these data is US20230263766A1, “CANNABINOID-CONTAINING FORMULATIONS FOR PARKINSONIAN MOVEMENT DISORDERS” (GBS Global BioPharma, Inc., priority 2021, published 2023).

Structures are written as SMILES.

For one assay, the system named is Cath.a cells. Description: In vitro neuroprotection assay (MPTP/MPP+ cytotoxicity, MTT cell viability). Type of assay: cell-based, mouse. As for the experimental part: (§1) Cell lines used were from ATCC. Cath.a cells (sp. = mouse, cat# CRL-11179, ATCC, Manassas, Virginia, US), a CNS catecholaminergic cell line, were cultured according to ATCC instructions and were induced to CAD differentiated status by serum deprivation (0.5% FBS culture for 36 h) prior to experiments as described (Qi et al., 1997, Neurosci, 17, 1217-25). PC12 (sp. = rat, ATCC #CRL-1721) were cultured in RPMI 10% FBS. PC12 differentiation used Minimal Essential M medium containing 1% HS and 0.5% FBS, then the cells were treated with 100 ng/ml NGF, 100 ng/ml basic fibroblast growth factor (bFGF), and serum-starved media containing 2 mg/ml BSA for 2 days (Joen et al., 2010. Synapse, 64, pgs 765-72).
Neuroprotective effects were assessed based on the ability of both individual compounds and mixtures of compounds to protect against neuronal cell death induced by 1-methyl-4-phenylpyridinium (MPP+) in the 1-methyl-4-phenyl-1,2,3,6-tetrahydropyridine (MPTP)-based selective cytotoxicity assay (Arshad et al., 2014, Acta Biochim Biophys Sin (Shanghai), 46, 22-30). MPP+ is an active metabolite of MPTP that is known to cause human Parkinsonism after injection. […] Cell viability was assessed 24 h after exposure to MPP, which is […] after exposure to the tested compound or compound mixture. […]

For assay [1], the system named is differentiated PC12 cells. Description: In vitro dopamine-release assay (Dopamine ELISA). The format is cell-based, rat. The settings on record: 10 µM of each compound; 30 mins; normalized to PMA/Ionomycin control; mean +/- SD. As for the experimental part: as §1
In parallel with the neuroprotection assays, cannabinoid and terpene compounds were tested alone and in mixtures to determine their effects on dopamine release from differentiated PC12 cells. PC12 cells were differentiated as in (Joen et al., 2010. Synapse, 64, pgs 765-72; Hu et al., 2018, Int J Mol Med, 41, 195-201). Supernatant samples were collected from 3 replicate wells 30 mins after application of PMA/Ionomycin (positive control) or the indicated compounds, and dopamine was measured in the medium using the Dopamine ELISA Kit #KA1887 from Abnova (Abnova, California, US) according to manufacturer’s instructions. […]
Background: In an ELISA, binding on a coated surface is turned into a signal by an enzyme label.

The test system of the next assay is zebrafish larvae. Description: Validation of the larval zebrafish OHDA model. The format is in vivo. As for the experimental part:
All compounds were diluted in 100% methanol (MeOH) and experiments were performed in a HEPES buffered E3 (HE3) medium (5 mM NaCl, 0.17 mM KCl, 0.33 mM CaCl2-2H2O, 0.33 mM MgSO4-7H2O, 10 mM HEPES, pH 7.2). Individual 120 hours post fertilization (hpf) larval zebrafish were transferred to a 48-well microtiter plate in 500 µL of HE3 media. Larvae were acclimated for at least one hour in a lighted 28.5° C. incubator (photon flux: 3-5 µmol s-1 m2) prior to experimentation and larval behavior was analyzed using DanioVision larval tracking systems with EthoVisionXT14/15 software (Noldus Information Technology Inc., Virginia, USA). Distance traveled was measured using dynamic subtraction at 28.5° C. over 120 minutes with the first 90 minutes under lighted conditions (15 µmol m-2 s-1), followed by alternating 5-minute dark/light cycles. Each larvae represents an independent measurement. […] 12 larvae were used in each experimental condition, and at least 2 replicates of each concentration were performed.
Larvae were exposed to varying concentrations of 6-hydroxydopamine (OHDA) from 48-120 hours post fertilization (hpf). 15 dechorionated larvae were transferred in 5 mL of HE3 to each well of a six-well plate. The 5 mL exposure media was replaced daily, and ascorbic acid/saline buffer (used to resuspend OHDA) was used as a vehicle control. Larvae were then loaded into 48-well microtiter plate in 500 µL of HE3 media as described above.
In addition to distance travelled, activity was measured as a percentage change in pixel density during data acquisition. […] The frequency with which larvae switched between activity states and the cumulative duration of time spent in each activity state was then measured. Metrics were captured in 1 min bins, and the average over 90 minutes was used to calculate each metric in each activity state. For frequency calculations, the number of times larvae switched between activity states (high, moderate, and low) was calculated (termed Total Frequency). The cumulative amount of time spent in the high and moderate activity states combined (termed Cumulative Duration) was averaged over 90 minutes and measured as a percentage.

As to `CCCCCc1cc(O)c2c(c1)OC(C)(CCC=C(C)C)C=C2` (centres unmarked) [CBC, Cannabichromene], the “neuroprotective effect of individual compounds” value in the assay with Cath.a cells (10 µM, MPTP/MPP+ induced apoptosis) is reported as “all of the individual cannabinoids except CBC displayed some neuroprotective effects”.

Turning to `C=C(C)[C@@H]1CCC(C)=C[C@H]1c1c(O)cc(CCCCC)cc1O` [CBD, Cannabidiol], the “effect of adding a major cannabinoid to MIX-1, MIX-2, MIX-3 on cell survival” value with Cath.a cells (10 µM each, equimolar) is given as “increased cell survival in all three mixtures”. Besides, the DOPA release in assay [1] is on record as 6.0 +/- 0.3%.

With `CCCCCc1cc(O)c2c(c1)OC(C)(C)c1ccc(C)cc1-2` [CBN, Cannabinol], the DOPA release in assay [1] is given as 8.1 +/- 0.4%.

As to `NCCc1cc(O)c(O)cc1O` [OHDA, 6-hydroxydopamine], the startle response result in the assay on zebrafish larvae (150 µM OHDA) was “not impacting the startle response”. Further, the “maximum response to the light/dark transition (startle response)” value with zebrafish larvae (225 µM OHDA) is reported as “non-significant increase in the maximum response to the light/dark transition”. In addition, the “baseline activity during initial 90-minute period in the light” value with zebrafish larvae (OHDA exposure 48-120 hpf) is “concentration-dependent decrease in the baseline activity”. In the assay with zebrafish larvae (OHDA treated larvae), the “fraction of time in high activity” value was determined as 1%, the “fraction of time in moderate activity” value is 5% and the “fraction of time in the inactive state” value is ~ 90%. Also, the “reduction in activity state transitions for all three states” value with zebrafish larvae (OHDA treatment vs untreated) is recorded as 50-60%.
